Assay results: patent US20200291018A1, “TAM KINASE INHIBITORS” (SYROS PHARMACEUTICALS, INC., priority 2017, published 2020)

Key:
MERTK = biological target: T1, MERTK (Homo sapiens, UniProt Q12866); assay: TR-FRET kinase activity assay, MERTK; format: biochemical; conditions: for IC50: TR-FRET activity assay, ATP at Km, 60 minutes, read-out: Mer IC50; for Mer/Flt3 ratio (FLT3 IC50/Mer IC50): ratio calculated as FLT3 IC50/Mer IC50
T1 sequence (Q12866 21-999): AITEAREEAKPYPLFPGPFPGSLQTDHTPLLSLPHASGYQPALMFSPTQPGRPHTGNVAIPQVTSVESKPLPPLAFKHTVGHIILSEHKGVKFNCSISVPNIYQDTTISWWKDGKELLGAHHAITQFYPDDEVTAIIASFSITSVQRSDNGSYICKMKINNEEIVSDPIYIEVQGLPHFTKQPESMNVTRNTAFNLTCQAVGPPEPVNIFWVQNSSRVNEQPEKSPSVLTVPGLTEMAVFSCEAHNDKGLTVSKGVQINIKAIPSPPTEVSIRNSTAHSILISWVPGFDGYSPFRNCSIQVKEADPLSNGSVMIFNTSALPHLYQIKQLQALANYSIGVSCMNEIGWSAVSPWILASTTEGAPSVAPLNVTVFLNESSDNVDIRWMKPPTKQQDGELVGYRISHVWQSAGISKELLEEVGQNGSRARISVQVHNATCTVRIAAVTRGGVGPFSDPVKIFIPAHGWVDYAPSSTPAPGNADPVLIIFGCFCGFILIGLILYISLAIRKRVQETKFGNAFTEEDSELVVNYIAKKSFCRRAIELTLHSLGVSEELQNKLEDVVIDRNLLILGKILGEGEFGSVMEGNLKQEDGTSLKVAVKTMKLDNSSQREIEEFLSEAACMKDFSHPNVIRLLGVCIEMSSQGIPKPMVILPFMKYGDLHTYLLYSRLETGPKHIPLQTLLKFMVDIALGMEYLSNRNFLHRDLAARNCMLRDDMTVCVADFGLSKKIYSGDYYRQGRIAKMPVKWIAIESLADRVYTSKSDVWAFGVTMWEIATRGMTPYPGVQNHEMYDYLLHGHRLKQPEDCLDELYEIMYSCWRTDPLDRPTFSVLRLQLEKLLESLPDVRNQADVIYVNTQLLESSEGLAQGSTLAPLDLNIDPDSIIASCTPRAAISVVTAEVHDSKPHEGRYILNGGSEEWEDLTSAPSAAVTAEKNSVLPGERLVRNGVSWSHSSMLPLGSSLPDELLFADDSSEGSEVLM
Experimental: (§1) IC50 values for compound inhibition of AXL, FLT3, MERTK and TYRO3 activity were determined using a TR-FRET activity assay. A peptide substrate with a fluorescent label is phosphorylated on a tyrosine by each enzyme, where the now phosphorylated product is bound by a Europium-labeled antibody specific to that phosphorylation site. The proximity between the antibody and the substrate gives a signal known as TR-FRET. As the enzyme is inhibited by compound, less phosphorylated peptide product is made, causing a decrease in overall signal.
(§2) Activity assays were performed in a 384-well, small volume, black microplates in an active enzyme volume of 10 uL and final developed volume of 20 uL. Final assay conditions are 50 mM HEPES pH 7.5, 10 mM MgCl2, 1 mM EGTA, 0.01% Brij 35 and 1 mM DTT, all at RT. Enzyme, substrate-labeled peptide and compound are mixed, and then the reaction is initiated with the addition of ATP at Km concentration for each enzyme. The reaction is allowed to run 60 minutes and then quenched with a 12.5 mM EDTA (ethylenediamine tetraacetic acid) solution. The plate is then developed with the addition of Europium-labeled antibody for a final volume of 20 uL and is then incubated for 30 minutes in darkness. Plates are read in a PHERASTAR® plate reader. Data are analyzed in GraphPad PRISM.

TYRO3 = biological target: T2, TYRO3 (Homo sapiens, UniProt Q06418); assay: TR-FRET kinase activity assay, TYRO3; format: biochemical; conditions: ATP at Km, 60 minutes
T2 sequence (Q06418 41-890): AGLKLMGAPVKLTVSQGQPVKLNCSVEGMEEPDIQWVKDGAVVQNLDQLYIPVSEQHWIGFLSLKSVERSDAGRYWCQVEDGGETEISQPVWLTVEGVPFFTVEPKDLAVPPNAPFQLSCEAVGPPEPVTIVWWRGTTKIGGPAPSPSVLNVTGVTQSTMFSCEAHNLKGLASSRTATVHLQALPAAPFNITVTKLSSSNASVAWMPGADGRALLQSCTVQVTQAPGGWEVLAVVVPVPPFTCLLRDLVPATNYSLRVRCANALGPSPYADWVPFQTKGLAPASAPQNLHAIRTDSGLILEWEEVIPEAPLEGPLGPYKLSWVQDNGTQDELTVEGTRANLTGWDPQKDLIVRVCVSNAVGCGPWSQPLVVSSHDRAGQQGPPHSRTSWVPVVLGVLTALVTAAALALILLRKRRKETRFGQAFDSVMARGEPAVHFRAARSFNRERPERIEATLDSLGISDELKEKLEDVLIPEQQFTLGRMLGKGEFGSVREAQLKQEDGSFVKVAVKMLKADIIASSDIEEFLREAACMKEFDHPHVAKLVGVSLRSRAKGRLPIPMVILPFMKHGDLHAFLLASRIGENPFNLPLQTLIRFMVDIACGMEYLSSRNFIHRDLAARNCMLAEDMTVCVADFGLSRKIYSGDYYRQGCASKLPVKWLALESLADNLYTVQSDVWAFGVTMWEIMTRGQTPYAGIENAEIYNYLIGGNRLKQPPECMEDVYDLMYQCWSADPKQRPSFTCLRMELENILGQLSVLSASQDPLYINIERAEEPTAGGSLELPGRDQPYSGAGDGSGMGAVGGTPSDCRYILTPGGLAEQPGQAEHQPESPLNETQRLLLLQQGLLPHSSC
Experimental: as §1, §2

Compound | IC50 (MERTK) [nM] | Mer/Flt3 ratio (FLT3 IC50/Mer IC50) (MERTK) | IC50 (TYRO3) [nM]
O[C@H]1CC[C@H](c2cnc(OC3CCNCC3)c3cnc(N[C@H]4CCCOC4)nc32)CC1 [Compound 216] | 100 to 1000 | ++ (a ratio of between 10 and 100) | 100 to 1000
CC[C@H](C)Nc1ncc2c(NC3CCOCC3)ncc([C@H]3CC[C@H](O)CC3)c2n1 [Compound 217] | ≤ 100 | +++ (a ratio of >100) | ≤ 100
C[C@@H](Nc1ncc2c(OC3CCNCC3)ncc([C@H]3CC[C@H](O)CC3)c2n1)c1ccccc1 [Compound 218] | 100 to 1000 | + (a ratio of >2.0 and <10) | 100 to 1000
CC[C@H](C)Nc1ncc2c(NC3CCN(C)CC3)ncc([C@H]3CC[C@H](O)CC3)c2n1 [Compound 220] | ≤ 100 | +++ (a ratio of >100) | 100 to 1000
CC[C@H](C)Nc1ncc2c(OC3CCN(C)CC3)ncc([C@H]3CC[C@H](O)CC3)c2n1 [Compound 221] | ≤ 100 | +++ (a ratio of >100) | 100 to 1000
CC[C@H](C)Nc1ncc2c(N3CC[C@@H](N(C)C)C3)ncc([C@H]3CC[C@H](O)CC3)c2n1 [Compound 222] | ≤ 100 | ++ (a ratio of between 10 and 100) | ≤ 100
CC[C@H](C)Nc1ncc2c(OC3C[C@H]4CC[C@@H](C3)O4)ncc([C@H]3CC[C@H](O)CC3)c2n1 (stereo partly drawn) [Compound 223] | ≤ 100 | ++ (a ratio of between 10 and 100) | 100 to 1000
O[C@H]1CC[C@H](c2cnc(OC3CCNCC3)c3cnc(NCCC(F)(F)F)nc32)CC1 [Compound 224] | ≤ 100 | ++ (a ratio of between 10 and 100) | 100 to 1000
CC[C@H](C)Nc1ncc2c(=O)n(C3CCOCC3)cc([C@H]3CC[C@H](O)CC3)c2n1 [Compound 225] | ≤ 100 | ++ (a ratio of between 10 and 100) | ≤ 100
CC[C@H](C)Nc1ncc2c(OC3CCOCC3)ncc([C@H]3CC[C@H](O)CC3)c2n1 [Compound 226] | ≤ 100 | +++ (a ratio of >100) | 100 to 1000
CC[C@H](C)Nc1ncc2c(OC3CC(C)(C)N(C)C(C)(C)C3)ncc([C@H]3CC[C@H](O)CC3)c2n1 [Compound 227] | ≤ 100 | +++ (a ratio of >100) | ≤ 100
CCC(CC)Nc1ncc2c(OC3CCNCC3)ncc([C@H]3CC[C@H](O)CC3)c2n1 [Compound 228] | ≤ 100 | ++ (a ratio of between 10 and 100) | 100 to 1000
CC[C@H](C)Nc1ncc2c(O[C@H]3CC[C@H](O)CC3)ncc([C@H]3CC[C@H](O)CC3)c2n1 [Compound 229] | ≤ 100 | ++ (a ratio of between 10 and 100) | 100 to 1000
CC[C@H](C)Nc1ncc2c(Cl)ncc([C@H]3CC[C@H](O)CC3)c2n1 [Compound 230] | ≤ 100 | +++ (a ratio of >100) | 100 to 1000
CC[C@H](C)NC1=NC2C([C@H]3CC[C@H](O)CC3)=CN(C(C)C)C(=O)C2C=N1 (stereo partly drawn) [Compound 231] | ≤ 100 | +++ (a ratio of >100) | ≤ 100
O[C@H]1CC[C@H](c2cnc(OC3CCNCC3)c3cnc(N[C@@H]4CCCOC4)nc32)CC1 [Compound 232] | 100 to 1000 | + (a ratio of >2.0 and <10) | 100 to 1000
CC[C@H](C)Nc1ncc2c(OC3CCN(S(C)(=O)=O)CC3)ncc([C@H]3CC[C@H](O)CC3)c2n1 [Compound 233] | ≤ 100 | +++ (a ratio of >100) | ≤ 100
CC[C@H](C)Nc1ncc2c(=O)n(C3CCN(S(C)(=O)=O)CC3)cc([C@H]3CC[C@H](O)CC3)c2n1 [Compound 234] | ≤ 100 | +++ (a ratio of >100) | ≤ 100
CCOc1ncc([C@H]2CC[C@H](O)CC2)c2nc(N[C@@H](C)CC)ncc12 [Compound 235] | ≤ 100 | +++ (a ratio of >100) | ≤ 100
CCOc1ncc(CC2CCNCC2)c2nc(N[C@@H](C)CC)ncc12 [Compound 236] | ≤ 100 | + (a ratio of >2.0 and <10) | 100 to 1000
CC[C@H](C)Nc1ncc2c(OC3C[C@H]4CC[C@@H](C3)O4)ncc([C@H]3CC[C@H](O)CC3)c2n1 (stereo partly drawn) [Compound 237] | ≤ 100 | +++ (a ratio of >100) | 1000 to 10000
CC[C@H](C)Nc1ncc2c(NC34CCC(O)(CC3)CC4)ncc([C@H]3CC[C@H](O)CC3)c2n1 [Compound 238] | ≤ 100 | ++ (a ratio of between 10 and 100) | 1000 to 10000
CC[C@H](C)Nc1ncc2c(OC3CCN(C)CC3)ncc([C@H]3CC[C@H](O)CC3)c2n1 [Compound 239] | ≤ 100 | +++ (a ratio of >100) | ≤ 100
CC[C@H](C)Nc1ncc2c(C3CCN(C)CC3)ncc([C@H]3CC[C@H](O)CC3)c2n1 [Compound 240] | ≤ 100 | +++ (a ratio of >100) | 100 to 1000
